Tests used:
[1] = test system: A549; assay: 72-h MTT cytotoxicity assay, A549; type: cell-based, human; conditions: Homo sapiens, Table 4, additional data for cytotoxicity assay using the A549 cell line; read-out: A549
Procedure: Selected compounds from the above examples were subjected to a standard cellular proliferation assay using a range of different human tumour cell lines. Standard 72-h MTT (thiazolyl blue; 3-{4,5-dimethylthiazol-2-yl}-2,5-diphenyltetrazolium bromide) assays were performed (Haselsberger, K.; Peterson, D. C.; Thomas, D. G.; Darling, J. L. Anti Cancer Drugs 1996, 7, 331-8; Loveland, B. E.; Johns, T. G.; Mackay, I. R.; Vaillant, F.; Wang, Z. X.; Hertzog, P. J. Biochemistry International 1992, 27, 501-10). Human tumour cell lines were obtained from the ATCC (American Type Culture Collection, 10801 University Boulevard, Manessas, Va. 20110-2209, USA).

[2] = biological target: T1, CDK2/cyclin E (Homo sapiens, UniProt P24941); assay: CDK2/cyclin E kinase assay (GST-Rb phosphorylation); type: biochemical; conditions: Table 2, further results for CDK2/cyclin E inhibition; read-out: CDK2/cyclin E;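 further: enzyme source: His-tagged CDK2/cyclin E co-expressed in Sf9 insect cells via baculovirus, then purified by metal-chelate chromatography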
T1 construct: His; made in house; host or cells: Sf9 insect cells (baculovirus)

[3] = test system: A549 cells; assay: Mitotic index HitKit (Cellomix); type: cell-based, human; conditions: at a concentration of 22 nM, toxicity above this concentration
From the text: The effect of compound 28 on the mitotic index was studied using mitotic index HitKit (Cellomix). Vinblastine was used as control in the experiments.
Above this concentration a decrease in the number of mitotic cells is observed which correlates with a decrease in the total number of cells.

Compound | IC50 [2] [nM] | IC50 [1] [nM] | maximum percentage of mitotic cells [3] [%]
C=CCNc1nc(C)c(-c2ccnc(Nc3ccc(F)cc3)n2)s1 [Compound 82, {4-(2-Allylamino-4-methyl-thiazol-5-yl)-pyrimidin-2-yl}-(4-fluoro-phenyl)-amine] | 200 | 1100 ± 300 | –
CNc1nc(C)c(-c2ccnc(Nc3ccc(C(F)(F)F)cc3)n2)s1 [Compound 89, {4-(4-Methyl-2-methylamino-thiazol-5-yl)-pyrimidin-2-yl}-(4-trifluoromethyl-phenyl)-amine] | 1200 | 18000 ± 11000 | –
Cc1nc(C)c(-c2ccnc(Nc3ccc(I)cc3F)n2)s1 [Compound 94, {4-(2,4-Dimethyl-thiazol-5-yl)-pyrimidin-2-yl}-(2-fluoro-4-iodo-phenyl)-amine] | 600 | 500 ± 600 | –
Cc1nc(C)c(-c2ccnc(Nc3ccc(O)c(Cl)c3)n2)s1 [Compound 97, 2-Chloro-4-{4-(2,4-dimethyl-thiazol-5-yl)-pyrimidin-2-ylamino}-phenol] | 600 | 4200 ± 400 | –
COCCOC(=O)c1cc(Nc2nccc(-c3sc(C)nc3C)n2)ccc1F [Compound 98, 5-{4-(2,4-Dimethyl-thiazol-5-yl)-pyrimidin-2-ylamino}-2-fluoro-benzoic acid 2-methoxy-ethyl ester] | 1100 | 2800 ± 2100 | –
CNc1nc(C)c(-c2ccnc(Nc3cc(F)cc(F)c3)n2)s1 [Compound 106, (3,5-Difluoro-phenyl)-{4-(4-methyl-2-methylamino-thiazol-5-yl)-pyrimidin-2-yl}-amine] | 10000 | 2800 ± 500 | –
CNc1nc(C)c(-c2ccnc(Nc3ccc(Cl)c(C(F)(F)F)c3)n2)s1 [Compound 107, (4-Chloro-3-trifluoromethyl-phenyl)-{4-(4-methyl-2-methylamino-thiazol-5-yl)-pyrimidin-2-yl}-amine] | 3000 | 700 ± 200 | –
CC[C@]1(O)C[C@@H]2CN(CCc3c([nH]c4ccccc34)[C@@](C(=O)OC)(c3cc4c(cc3OC)N(C)[C@H]3[C@@](O)(C(=O)OC)[C@H](OC(C)=O)[C@]5(CC)C=CCN6CC[C@]43[C@@H]65)C2)C1 [Vinblastine, reference compound] | – | – | 31

Second part, led by results:

IC50 [2] [nM] | Compound | IC50 [1] [nM] | maximum percentage of mitotic cells [3] [%]
200 | CNc1nc(C)c(-c2ccnc(Nc3cccc(Br)c3)n2)s1 [Compound 83, (3-Bromo-phenyl)-{4-(4-methyl-2-methylamino-thiazol-5-yl)-pyrimidin-2-yl}-amine] | 600 ± 300 | –
130 | CNc1nc(C)c(-c2ccnc(Nc3ccc(Br)cc3)n2)s1 [Compound 86, (4-Bromo-phenyl)-{4-(4-methyl-2-methylamino-thiazol-5-yl)-pyrimidin-2-yl}-amine] | 8000 ± 6000 | –
80 | CNc1nc(C)c(-c2ccnc(Nc3ccc(Cl)cc3)n2)s1 [Compound 87, (4-Chloro-phenyl)-{4-(4-methyl-2-methylamino-thiazol-5-yl)-pyrimidin-2-yl}-amine] | 1700 ± 100 | –
200 | CNc1nc(C)c(-c2ccnc(Nc3cccc(OC)c3)n2)s1 [Compound 88, (3-Methoxy-phenyl)-{4-(4-methyl-2-methylamino-thiazol-5-yl)-pyrimidin-2-yl}-amine] | 400 ± 100 | –
200 | CNc1nc(C)c(-c2ccnc(Nc3cccc(C(F)(F)F)c3)n2)s1 [Compound 90, {4-(4-Methyl-2-methylamino-thiazol-5-yl)-pyrimidin-2-yl}-(3-trifluoromethyl-phenyl)-amine] | 1800 ± 800 | –
2000 | CNc1nc(C)c(-c2ccnc(Nc3ccc(F)cc3F)n2)s1 [Compound 105, (2,4-Difluoro-phenyl)-{4-(4-methyl-2-methylamino-thiazol-5-yl)-pyrimidin-2-yl}-amine] | 700 ± 900 | –

Reference: patent US6699854B2, “Anti-cancer compounds” (Cyclacel Limited, priority 2000, dated 2004)
